Measurements reported in article PMC10048804, “Coumarin-Based Compounds as Inhibitors of Tyrosinase/Tyrosine Hydroxylase: Synthesis, Kinetic Studies, and In Silico Approaches” (International Journal of Molecular Sciences, 2023).
Entries after “also recorded” stand apart in the source; their conditions may differ. Read-outs that look alike come from different tables or passages of the source.

Columns and labels:
mushroom tyrosinase [1] = conditions: ref [39],[40],[41]; cited from earlier work
[2] = tested on: cellular tyrosinase in B16F10 cells; conditions: ref [39],[40],[41]; cited from earlier work
B16F10 cells = conditions: ref [39],[40],[41]; cited from earlier work
tyrosinase [3] = conditions: cited from earlier work
intracellular tyrosinase = tested on: intracellular tyrosinase; parameters: method as in PMID 35063859; conditions: ref [45], cited from earlier work
production of melanin = tested on: production of melanin; parameters: method as in PMID 35063859; conditions: ref [45]; cited from earlier work
mushroom tyrosinase [4] = target: T1, mushroom tyrosinase (Agaricus bisporus, UniProt C7FF04); assay: Kinetic analysis of the inhibition of tyrosinase (Lineweaver-Burk plots); assay type: biochemical; parameters: purchased Sigma-Aldrich; conditions: L-DOPA substrate
Description: The mechanism for tyrosinase inhibition of the tested compounds was determined from Lineweaver–Burk double reciprocal plots. The plot provides a useful graphical method for analysis of the Michaelis–Menten equations used to determine the Km values for possible competitive, uncompetitive, non-competitive, and mixed mechanisms of inhibition. All Lineweaver–Burk plots can be found in the Supplementary Information. As can be easily noticed, the majority of tested compounds are characterized by the mixed mode of inhibition (Table 2). It is a type of enzyme inhibition in which the inhibitor may bind to the enzyme whether or not the enzyme has already bound to the substrate.
A series of experiments was performed to determine the inhibition kinetics of the tested compounds following the already reported method. The inhibitor concentrations for the tested compounds were 0.05 and 0.1 mM. The substrate L-DOPA concentration was between 0.1 and 0.25 mM in all kinetic studies, but for the FN-06 and FN-27 compounds, concentrations between 0.15 and 0.3 mM were used. Maximal initial velocity was determined from the initial linear portion of absorbance up to ten minutes after the addition of the enzyme. The inhibition type of the enzyme, Michaelis constant (Km), and maximal velocity (Vmax) were determined using Lineweaver–Burk plots of the inverse of velocities (1/V) versus the inverse of substrate concentration 1/[L-DOPA] mM^−1.
Target sequence in this assay (C7FF04 1-392 limits assumed): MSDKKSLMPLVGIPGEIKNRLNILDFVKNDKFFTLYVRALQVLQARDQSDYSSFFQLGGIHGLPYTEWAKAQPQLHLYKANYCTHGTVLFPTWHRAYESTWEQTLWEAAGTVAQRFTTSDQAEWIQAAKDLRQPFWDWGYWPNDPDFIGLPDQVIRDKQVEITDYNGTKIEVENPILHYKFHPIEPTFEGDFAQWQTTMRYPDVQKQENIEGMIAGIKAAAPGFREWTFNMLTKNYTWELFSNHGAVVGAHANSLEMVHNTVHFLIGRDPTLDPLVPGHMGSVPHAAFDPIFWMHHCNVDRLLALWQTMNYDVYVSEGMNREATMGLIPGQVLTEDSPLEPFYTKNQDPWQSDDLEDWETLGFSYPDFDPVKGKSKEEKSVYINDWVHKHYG

tyrosinase [5] = target: T2, tyrosinase (Agaricus bisporus, UniProt C7FF04); assay: UV-Vis spectra of L-DOPA oxidation by tyrosinase in absence and presence of inhibitor; assay type: biochemical, mushroom; conditions: after 30 min, versus L-DOPA with tyrosinase
T2 construct: purchased Sigma-Aldrich
Description: The remaining compound FN-40 is a competitive inhibitor, which binds to the enzyme at its active site, preventing the binding of the substrate to the enzyme. […] To observe the effect of the oxidation of L-DOPA by tyrosinase in the absence and presence of the tested compounds, the UV-Vis spectra were determined. During L-DOPA oxidation by tyrosinase, a characteristic signal at 475 nm is observed in the UV-Vis spectrum, corresponding to the formation of dopachrome.

mushroom tyrosinase [6] = target: T1, mushroom tyrosinase; assay: Mushroom tyrosinase inhibition assay (L-DOPA substrate, dopachrome at 475 nm); assay type: biochemical
Description: All compounds were tested for their inhibitory effects on mushroom tyrosinase using L-DOPA as substrate. In general, the results were compared with standard tyrosinase inhibitors, such as kojic acid and ascorbic acid. […]. The mushroom tyrosinase (Sigma-Aldrich) inhibition was performed following previously reported methods. All assays were carried out with solutions containing phosphate buffer (50 mM, pH 6.8), L-DOPA (0.17 mM), EDTA (0.022 mM), tyrosinase (50–100 units), and varying concentrations of compounds, and were performed in triplicate at room temperature. The inhibitor solutions were prepared in DMSO with an initial concentration of 1 mM. Different aliquots were added to the solution containing buffer, L-DOPA, and EDTA, the enzyme being added in the end. The formation of dopachrome was determined by monitoring the absorbance at 475 nm with a T60U spectrophotometer (PG Instruments) equipped with quartz cells of 1 cm path length. Kojic acid and ascorbic acid were used as reference inhibitors with an initial concentration of 1 mM. The IC50 values were calculated from the equation generated with an exponential fit of the experimental data. […]
Target sequence in this assay (C7FF04 2-392): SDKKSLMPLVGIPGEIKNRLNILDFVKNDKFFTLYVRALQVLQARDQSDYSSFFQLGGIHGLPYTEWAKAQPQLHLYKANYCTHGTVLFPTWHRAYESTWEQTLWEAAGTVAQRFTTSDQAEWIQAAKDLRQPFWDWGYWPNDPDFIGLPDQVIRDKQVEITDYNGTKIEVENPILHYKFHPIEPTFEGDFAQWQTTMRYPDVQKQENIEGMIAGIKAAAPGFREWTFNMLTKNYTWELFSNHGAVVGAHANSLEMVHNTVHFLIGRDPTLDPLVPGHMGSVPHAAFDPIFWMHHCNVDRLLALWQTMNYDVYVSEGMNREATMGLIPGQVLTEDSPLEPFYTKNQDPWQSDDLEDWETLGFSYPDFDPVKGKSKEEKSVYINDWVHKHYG

T2 sequence (C7FF04 1-392 limits assumed): as the sequence (C7FF04 1-392 limits assumed) above

| Molecule | Inhibitory Mechanism (mushroom tyrosinase [4]; compound at 0.1 mM) | melting point [°C] | other results |
| --- | --- | --- | --- |
| O=c1oc2cc(O)cc(O)c2cc1-c1cccs1 [Compound 1] |  |  | IC50 (mushroom tyrosinase [1]): 150 ± 28 nM |
| O=c1oc2cc(O)cc(O)c2cc1-c1cc(Br)cs1 [Compound 2] |  |  | cellular tyrosinase activity [2]: able to inhibit; melanin production (B16F10 cells): able to inhibit; IC50 (mushroom tyrosinase [1]): 380 ± 84 nM |
| O=c1oc2cc(O)cc(O)c2cc1-c1ccc(Br)cc1 [Compound 3] |  |  | cellular tyrosinase activity [2]: able to inhibit; melanin production (B16F10 cells): able to inhibit; IC50 (mushroom tyrosinase [1]): 1050 ± 56 nM |
| COc1cc(C2CC(c3cc4ccccc4oc3=O)=NN2c2nc(-c3ccc(Br)cc3)cs2)ccc1OCc1ccccc1 (stereo not shown) [Compound 5] |  |  | IC50 (tyrosinase [3]; ref [43]): 4.58 ± 0.22 nM |
| CC(C)=CCOc1c2occc2cc2ccc(=O)oc12 [Compound 6, marmelosin] |  |  | IC50 (tyrosinase [3]; ref [44]): 20300 ± 1260 nM |
| CC(C)=CC(=O)O[C@H]1Cc2cc3ccc(=O)oc3cc2OC1(C)C [Compound 7, decursin] |  |  | %Tyrosine inh. (intracellular tyrosinase; at 30 μM): 59.8 ± 0.6%; intracellular activity of tyrosinase (intracellular tyrosinase): decreases; production of melanin (production of melanin): reduces |
| C/C(=N\NC(N)=S)c1cc2ccc(O)cc2oc1=O [FN-19, (1E)-1-(1-(7-Hydroxy-2-oxo-2H-chromen-3-yl)ethylidene)thiosemicarbazide] | mixed inhibitor; also recorded: mixed mode |  | signal intensity at 475 nm (dopachrome formation) (tyrosinase [5]): significant reduction; also recorded: significantly reduce |
| COc1cccc2cc(/C(C)=N/NC(=O)c3ccncc3)c(=O)oc12 [FN-29, (13E)-N’-(1-(8-Methoxy-2-oxo-2H-chromen-3-yl)ethylidene)isonicotinohydrazide] | Mixed | 202 to 206 | solubility in the tyrosinase assay (mushroom tyrosinase [6]; in words): not soluble |
| (E)-N’-(4-(dimethylamino)benzylidene)-2-methylene-2H-chromene-3-carbohydrazide [FN-11] | Mixed |  | IC50 (mushroom tyrosinase [6]; mushroom tyrosinase, L-DOPA 0.17 mM as substrate, pH 6.8, triplicate, room temperature): 159000 nM |

Second part, led by results:

| Inhibitory Mechanism (mushroom tyrosinase [4]; compound at 0.1 mM) | melting point [°C] | Molecule | other results |
| --- | --- | --- | --- |
| mixed inhibitors |  | CC(=O)c1cc2ccc(O)cc2oc1=O [FN-06, 3. -Acetyl-7-hydroxy-2H-chromen-2-one] |  |
| Mixed |  | COc1cccc2cc(C(C)=O)c(=O)oc12 [FN-07, 3. -Acetyl-8-methoxy-2H-chromen-2-one] |  |
|  | 111 to 112 | CN(C)c1ccc(/C=C/C(=O)c2cc3ccccc3oc2=O)cc1 [FN-10, 3. -((E)-3-(4-(Dimethylamino)phenyl)acryloyl)-2H-chromen-2-one] | Inhibitory Mechanism (mushroom tyrosinase [4]; compound at 0.05 mM): mixed inhibitors |
| Mixed | 226 to 229 | C/C(=N\NC(N)=O)c1cc2ccc(O)cc2oc1=O [FN-17, (1E)-1-(1-(7-Hydroxy-2-oxo-2H-chromen-3-yl)ethylidene)semicarbazide] |  |
| Mixed | 240 to 242 | COc1cccc2cc(/C(C)=N/NC(N)=O)c(=O)oc12 [FN-25, (1E)-1-(1-(8-Methoxy-2-oxo-2H-chromen-3-yl)ethylidene)semicarbazide] |  |
| mixed inhibitors |  | COc1cccc2cc(/C(C)=N/NC(N)=S)c(=O)oc12 [FN-27, (1E)-1-(1-(8-Methoxy-2-oxo-2H-chromen-3-yl)ethylidene)thiosemicarbazide] |  |
| Competitive |  | CC(=O)c1cc2cc(Br)ccc2oc1=O [FN-40] |  |
| Uncompetitive | 201 to 203 | CC(=O)c1cc2cc([N+](=O)[O-])ccc2oc1=O [MP-03, 3. -Acetyl-6-nitro-2H-chromen-2-one] |  |
| Noncompetitive | 157 to 159 | CC(=O)c1cc2ccc(C)cc2oc1=O [MP-04, 3. -Acetyl-7-methyl-2H-chromen-2-one] |  |
| Mixed |  | CC(=O)c1cc2ccccc2oc1=O [MP-05, 3. -Acetyl-2H-chromen-2-one] |  |
